Assay results taken from ChEMBL document CHEMBL5236634, “Membrane-Targeting Neolignan-Antimicrobial Peptide Mimic Conjugates to Combat Methicillin-Resistant Staphylococcus aureus (MRSA) Infections” (J Med Chem, 2022).
≈ marks a conversion by molar mass, not a printed value.

Experiments:
Escherichia coli = assay: Antibacterial activity against Escherichia coli ATCC 25922 assessed as inhibition of bacterial growth incubated for 16 to 20 hrs by CLSI based microdilution method; assay type: functional; conditions: time 16-20 hrs
Enterococcus faecalis = assay: Antibacterial activity against Enterococcus faecalis ATCC 29212 assessed as inhibition of bacterial growth incubated for 16 to 20 hrs by CLSI based microdilution method; assay type: functional; conditions: time 16-20 hrs
Staphylococcus aureus = assay: Antibacterial activity against Staphylococcus aureus ATCC 29213 assessed as inhibition of bacterial growth incubated for 16 to 20 hrs by CLSI based microdilution method; assay type: functional; conditions: time 16-20 hrs
[1] = Hemolytic activity in sheep RBC incubated for 1 hr by absorbance based analysis; assay type: toxicity, cell-based, Ovis aries, Erythrocyte; conditions: sheep red blood cells
[2] = Selectivity index, ratio of HC50 for hemolytic activity in sheep RBC to MIC for antibacterial activity against Staphylococcus aureus ATCC 29213; assay type: toxicity; conditions: sheep red blood cells
Salmonella enterica [3] = assay: Antibacterial activity against Salmonella enterica H9812 assessed as inhibition of bacterial growth incubated for 16 to 20 hrs by CLSI based microdilution method; assay type: functional; conditions: time 16-20 hrs
Micrococcus luteus = assay: Antibacterial activity against Micrococcus luteus assessed as inhibition of bacterial growth incubated for 16 to 20 hrs by CLSI based microdilution method; assay type: functional; conditions: time 16-20 hrs
Salmonella enterica [4] = assay: Antibacterial activity against Salmonella enterica 8389 assessed as inhibition of bacterial growth incubated for 16 to 20 hrs by CLSI based microdilution method; assay type: functional; conditions: time 16-20 hrs

SMILES | MIC (Escherichia coli) [µg/mL] | MIC (Enterococcus faecalis) [µg/mL] | MIC (Staphylococcus aureus) [µg/mL] | HC50 at 1 h [1] [µg/mL] | selectivity ratio [2] | MIC (Salmonella enterica [3]) [µg/mL] | MIC (Micrococcus luteus) [µg/mL] | MIC (Salmonella enterica [4]) [µg/mL]
Br.C=CCc1cccc(Oc2ccc(C(=O)CC)cc2)c1OCCCCSC(=N)N | 32 | 32 | 16 | 931 | 58.2 | 128 | 16 | 64
C[C@@H](O)[C@H]1C(=O)N2C(C(=O)O)=C(S[C@@H]3CN[C@H](C(=O)N(C)C)C3)[C@H](C)[C@H]12 [MEROPENEM] | 0.125 (≈ 0.326 µM) |  |  |  |  | 0.125 (≈ 0.326 µM) |  | 0.125 (≈ 0.326 µM)
CCCCCCNC(=O)C[N+](C)(C)CCOc1ccccc1Oc1ccc(C(=O)CC)cc1.[Br-] | > 128 |  | 16 | 918 | 57.4 |  |  | 
C=CCc1cccc(Oc2ccc(C(=O)CC)cc2)c1OCCC[N+](C)(C)CC(=O)N(CCC)CCC.[Br-] | 64 | 16 | 16 | 854 | 53.3 | 128 | 32 | 64
C=CCc1cccc(Oc2ccc(C(=O)CC)cc2)c1OCCCC[N+](C)(C)CC(=O)N(CC)CC.[Br-] | 64 | 32 | 32 | > 1280 | > 40 | > 128 | 64 | > 128
CCCCCCNC(=O)C[N+](C)(C)CCCOc1ccccc1Oc1ccc(C(=O)CC)cc1.[Br-] | > 128 |  | 4 | 536 | 134 |  |  | 
C=CCc1cccc(Oc2ccc(C(=O)CC)cc2)c1OCCCC[N+](C)(C)CC(=O)N1CCCC1.[Br-] | 64 | 16 | 16 | 579 | 36.2 | 128 | 32 | 128
C=CCc1cccc(Oc2ccc(C(=O)CC)cc2)c1OCCC[N+](C)(C)CC(=O)NCCCCC.[Br-] | 16 | 8 | 4 | 690 | 172 | > 128 | 32 | 8
C=CCc1cccc(Oc2ccc(C(=O)CC)cc2)c1OCCCC[N+](C)(C)CC(=O)N1CCOCC1.[Br-] | > 128 | 64 | 64 | 578 | 9 | > 128 | 64 | > 128
C=CCc1cccc(Oc2ccc(C(=O)CC)cc2)c1OCCCC[N+](C)(C)CC(=O)NCCC.[Br-] | 64 | 64 | 32 | 823 | 25.7 | 128 | 128 | 128
C=CCc1cccc(Oc2ccc(C(=O)CC)cc2)c1OCC[N+](C)(C)CC(=O)N(CC)CC.[Br-] | 128 | 64 | 64 | 690 | 10.8 | > 128 | 32 | > 128
C=CCc1cccc(Oc2ccc(C(=O)CC)cc2)c1OCC[N+](C)(C)CC(=O)N1CCOCC1.[Br-] | 128 | 64 | 64 | > 1280 | > 20 | 64 | 16 | 64
C=CCc1cccc(Oc2ccc(C(=O)CC)cc2)c1OCCCC[N+](C)(C)CC(=O)NCCCCCC.[Br-] | 32 | 16 | 4 | 642 | 160 | 32 | 64 | 64
C=CCc1cccc(Oc2ccc(C(=O)CC)cc2)c1OCC[N+](C)(C)CC(=O)N(CCCC)CCCC.[Br-] | 64 | 8 | 8 | 834 | 104 | 128 | 32 | 128
C=CCc1cccc(Oc2ccc(C(=O)CC)cc2)c1OCCC[N+](C)(C)CC(=O)N1CCOCC1.[Br-] | > 128 | 64 | 32 | 674 | 21.1 | 64 | 64 | > 128
C=CCc1cccc(Oc2ccc(C(=O)CC)cc2)c1OCC[N+](C)(C)CC(=O)NCC.[Br-] | 64 | 32 | 32 | 509 | 15.9 | 128 | 32 | 128
